Measured values: the NIST ThermoML archive (doi:10.1021/je7007654)

Test: xn = mol fraction of the nth substance listed
Settings: 101 kPa, Liquid; for viscosity: Capillary tube (Ostwald / Ubbelohde) method; for speed of sound: Sing-around technique in a fixed-path interferometer

CCCCCCCCCCCCCCCC [hexadecane] + CCCCO
Settings	mass density, 298.15 K [kg/m3]	mass density, 303.15 K [kg/m3]	mass density, 308.15 K [kg/m3]	speed of sound, 298.15 K [m/s]	speed of sound, 303.15 K [m/s]	speed of sound, 308.15 K [m/s]	viscosity, 298.15 K [mPa·s]	viscosity, 303.15 K [mPa·s]	viscosity, 308.15 K [mPa·s]
x2 = 0	770.456	766.981	763.52	1338.6	1320	1301.7	3.041	2.706	2.409
x2 = 0.0899	770.953	767.402	763.863	1332.4	1313.4	1294.9	2.957	2.6	2.302
x2 = 0.1048	771.053	767.499	763.961	1331.2	1312.2	1293.8	2.937	2.582	2.287
x2 = 0.1516	771.517	767.916	764.36	1328.2	1309.2	1290.3	2.899	2.546	2.254
x2 = 0.2017	772.074	768.482	764.874	1324.9	1305.8	1287.3	2.846	2.515	2.223
x2 = 0.2494	772.705	769.093	765.462	1321.9	1302.9	1284.4	2.811	2.478	2.189
x2 = 0.3382	774.083	770.439	766.796	1315.8	1296.9	1278.2	2.753	2.432	2.146
x2 = 0.4147	775.524	771.883	768.201	1310.6	1291.6	1273.1	2.704	2.394	2.112
x2 = 0.5057	777.651	773.952	770.24	1303.9	1285.5	1266.9	2.665	2.344	2.068
x2 = 0.5845	779.95	776.223	772.472	1297.6	1279.2	1260.9	2.635	2.306	2.029
x2 = 0.698	784.249	780.452	776.653	1287.4	1269.2	1251.1	2.594	2.256	1.99
x2 = 0.7945	789.246	785.434	781.597	1276.8	1258.5	1240.6	2.568	2.223	1.96
x2 = 0.8497	792.847	789.093	785.172	1269.5	1251.4	1233.7	2.558	2.218	1.953
x2 = 0.8963	796.346	792.717	788.76	1262.7	1244.8	1227.4	2.551	2.219	1.948
x2 = 0.953	801.232	797.973	794.054	1252.3	1235.8	1218.5	2.556	2.228	1.953
